Molecular target: Mycobacterium tuberculosis shikimate kinase (Mycobacterium tuberculosis, UniProt P9WPY3)
Experiment: Shikimate kinase steady-state kinetics, ATP vs C8D-ATP
Type: biochemical
From the text: Hexokinase from Saccharomyces cerevisiae Type F-300 (Sigma, H4502) and Acetate kinase from E. coli (Sigma, A7437) were purchased. The human adenylate kinase (AK1) gene in vector pLIG-SC1 was obtained from the Structural Genomics Consortium (code AK1A). The His-tagged AK1 was produced in Escherichia coli Origami (DE3) and purified using the Bio-Rad Profinia Purification System. […] The Mycobacterium tuberculosis shikimate kinase gene in pET15b (Novagen) was obtained from the group of Chris Abell, Cambridge University, UK. The his-tagged MtSK was produced in E. coli BL21 (DE3) and purified using the Bio-Rad Profinia Purification System. The pure protein was dialysed against 50 mM Tris (pH 7.5) and 1,000 mM NaCl. Adenylylated (GS12) and deadenylylated (GS0) glutamine synthetase were prepared as outlined below.
The final volumes were 100 μl, and the reactions were incubated at 37° C. for 20 minutes, before being terminated by the addition of 5 μl 200 mM EDTA.
The results are reflected in FIGS. 19 to 25. […] The best-fit to the data was obtained for the specified kinetic model using the non-linear regression algorithms as outlined using the GraphPad Prism® 5 software. […] These response curves were then used to define the KIE by the conventional estimation of KIE from KIE=vH/vD. The KIED was also determined using the following function: […]

[1] = tested model: Allosteric sigmoidal

Sequence of Mycobacterium tuberculosis shikimate kinase (P9WPY3 whole entry): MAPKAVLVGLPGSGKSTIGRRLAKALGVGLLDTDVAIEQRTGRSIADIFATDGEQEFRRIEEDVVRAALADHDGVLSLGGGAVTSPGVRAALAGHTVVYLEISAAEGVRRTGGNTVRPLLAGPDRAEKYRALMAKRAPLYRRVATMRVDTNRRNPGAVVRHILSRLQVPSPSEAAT

Compound	fit to kinetic model [1]	fit to kinetic model (tested model: Michaelis-Menton)	KIEvmax (KIE at maximum enzyme activity)
Nc1ncnc2c1ncn2[C@@H]1O[C@H](COP(=O)(O)OP(=O)(O)OP(=O)(O)O)[C@@H](O)[C@H]1O [ATP, adenosine triphosphate, reference compound]	Allosteric sigmoidal	Fit ambiguous	
Nc1ncnc2c1ncn2[C@@H]1O[C@H](COP(=O)(O)OP(=O)(O)OP(=O)(O)O)[C@@H](O)[C@H]1O [C8D-ATP]	Allosteric sigmoidal	Fit ambiguous	1

Source: patent US20120270251A1, “INHIBITION OF THE ACTIVITY OF KINASE AND SYNTHETASE ENZYMES” (CSIR, priority 2009, published 2012)
